Measured values reported in US20140135310A1, “SULPHONAMIDE DERIVATIVES OF ALICYCLIC AMINES FOR THE TREATMENT OF CENTRAL NERVOUS SYSTEM DISEASES” (Adamed Sp. z o.o., priority 2011, published 2014).
Each block holds one compound with its values, some of them ahead of it.

Tests used:
[1] = target: dopaminergic receptors D2 (Homo sapiens, UniProt P14416); assay: Radioligand binding assay, dopaminergic D2 receptors; details: for D2 [%] / inhibition at 1 µM: binding assay, test compound 1×10^−6 M
Procedure, shortened: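 Scintillation read-out. Specific = total − nonspecific (excess cold ligand). Data as % of control specific binding / % inhibition; IC50 by Hill fit; Ki = IC50/(1+L/KD), KD from Scatchard plot.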

[2] = target: T1, 5-HT1A receptor (rat hippocampus) (Rattus norvegicus, UniProt P19327); assay: Radioligand binding assay, serotoninergic 5-HT1A receptors; details: binding assay result in %, Table 5a
T1 construct: hippocampus; from tissue; host or cells: rat hippocampus
T1 sequence (P19327 1-422): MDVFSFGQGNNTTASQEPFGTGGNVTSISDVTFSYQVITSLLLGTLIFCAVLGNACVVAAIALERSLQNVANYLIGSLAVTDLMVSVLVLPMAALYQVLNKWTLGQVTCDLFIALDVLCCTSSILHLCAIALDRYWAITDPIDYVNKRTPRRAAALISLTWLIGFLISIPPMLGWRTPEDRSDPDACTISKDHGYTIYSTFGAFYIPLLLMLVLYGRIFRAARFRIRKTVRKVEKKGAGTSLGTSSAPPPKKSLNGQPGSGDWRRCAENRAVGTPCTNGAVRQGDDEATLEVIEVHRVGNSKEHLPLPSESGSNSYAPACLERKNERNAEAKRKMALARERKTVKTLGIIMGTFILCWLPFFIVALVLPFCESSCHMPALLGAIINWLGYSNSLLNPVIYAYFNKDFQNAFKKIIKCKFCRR

[3] = tested on: α1 adrenergic receptors (rat cerebral cortex); assay: Radioligand binding assay, adrenergic α1 receptors; details: test compound 1×10^−6 M
Procedure, shortened: (§1)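 Values derive from radioligand displacement, with non-specific binding defined by excess cold ligand and detection by scintillation. Hill-fit IC50s were converted to Ki via Cheng-Prusoff using Scatchard-derived Kd; percent inhibition of control specific binding also reported.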

α2C adrenergic receptors = target: T2, α2C adrenergic receptors (Homo sapiens, UniProt P18825); assay: Radioligand binding assay, adrenergic α2C receptors; details: test compound 1×10^−6 M
T2 construct: expressed in transfected cells; host or cells: CHO cells
T2 sequence (P18825 1-462): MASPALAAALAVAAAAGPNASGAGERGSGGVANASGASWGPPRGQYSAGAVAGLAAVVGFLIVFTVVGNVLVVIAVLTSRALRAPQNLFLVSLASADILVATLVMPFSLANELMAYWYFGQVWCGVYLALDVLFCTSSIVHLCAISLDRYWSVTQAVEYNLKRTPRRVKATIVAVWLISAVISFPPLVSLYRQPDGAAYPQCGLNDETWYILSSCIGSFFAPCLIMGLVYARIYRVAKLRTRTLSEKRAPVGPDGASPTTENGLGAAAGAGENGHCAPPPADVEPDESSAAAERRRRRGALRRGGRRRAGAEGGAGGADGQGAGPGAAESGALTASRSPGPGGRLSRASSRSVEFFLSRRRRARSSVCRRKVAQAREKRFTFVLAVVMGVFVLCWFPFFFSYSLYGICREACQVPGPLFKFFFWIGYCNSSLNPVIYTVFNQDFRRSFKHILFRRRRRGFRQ
Procedure, shortened: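 Competitive radioligand binding at human α2C receptors, with scintillation counting. Nonspecific binding defined with excess unlabelled ligand; results given as % inhibition of control specific binding. IC50 from Hill-equation fits of competition curves; Ki via Cheng-Prusoff using radioligand concentration and Scatchard-derived KD.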

[4] = target: T3, serotonin transporter (SERT) (Homo sapiens, UniProt P31645); assay: Radioligand binding assay, serotonin transporter (SERT); details: for SERT [%] / inhibition at 1 µM: binding assay, test compound 1×10^−6 M; for Ki: read-out: Inhibition constants Ki for SERT, SERT
T3 construct: expressed in transfected cells; host or cells: CHO cells
Procedure, shortened: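 Values are derived from competition curves fitted by the Hill equation to give IC50, then converted to Ki by Cheng-Prusoff with radioligand Kd from Scatchard analysis. Specific binding equals total minus non-specific (excess cold ligand), counted by scintillation, and is also expressed as percent inhibition of control.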

σ receptors = assay: Radioligand binding assay, σ receptors; details: rat cerebral cortex, [3H]DTG 8 nM
Procedure, shortened: as §1

T3 sequence (P31645 whole entry): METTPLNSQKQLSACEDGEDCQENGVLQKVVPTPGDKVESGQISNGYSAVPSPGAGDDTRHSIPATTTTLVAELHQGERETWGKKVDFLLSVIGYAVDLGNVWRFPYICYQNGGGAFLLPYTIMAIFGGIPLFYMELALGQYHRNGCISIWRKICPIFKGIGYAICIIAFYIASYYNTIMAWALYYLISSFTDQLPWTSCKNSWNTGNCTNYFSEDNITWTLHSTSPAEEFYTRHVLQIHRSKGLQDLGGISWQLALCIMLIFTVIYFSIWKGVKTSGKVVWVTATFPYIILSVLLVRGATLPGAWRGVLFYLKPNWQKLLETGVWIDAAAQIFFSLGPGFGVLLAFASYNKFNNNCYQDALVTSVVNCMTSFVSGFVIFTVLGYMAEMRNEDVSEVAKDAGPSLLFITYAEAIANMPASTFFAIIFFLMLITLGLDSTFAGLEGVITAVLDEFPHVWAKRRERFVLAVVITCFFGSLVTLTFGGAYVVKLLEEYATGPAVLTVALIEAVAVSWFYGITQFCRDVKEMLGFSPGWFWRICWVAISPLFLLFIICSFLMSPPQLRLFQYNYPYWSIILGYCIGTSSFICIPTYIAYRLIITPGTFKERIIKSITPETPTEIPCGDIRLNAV
Chain of dopaminergic receptors D2 (P14416 whole entry): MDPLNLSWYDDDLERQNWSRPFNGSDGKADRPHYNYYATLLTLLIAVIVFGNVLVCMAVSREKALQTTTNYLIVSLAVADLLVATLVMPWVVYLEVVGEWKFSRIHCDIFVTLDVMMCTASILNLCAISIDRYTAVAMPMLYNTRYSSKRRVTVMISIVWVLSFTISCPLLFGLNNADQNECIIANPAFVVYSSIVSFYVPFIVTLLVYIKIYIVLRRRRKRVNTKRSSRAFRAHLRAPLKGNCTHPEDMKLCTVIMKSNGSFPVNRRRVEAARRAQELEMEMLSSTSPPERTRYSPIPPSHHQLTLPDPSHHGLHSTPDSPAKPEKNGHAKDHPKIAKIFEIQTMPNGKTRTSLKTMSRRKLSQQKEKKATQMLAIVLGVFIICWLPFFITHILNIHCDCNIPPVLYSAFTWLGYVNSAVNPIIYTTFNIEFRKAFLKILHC

Compound: N-[1-[3-(6-Fluoro-1,2-benzoxazol-3-yl)propyl]pyrrolidin-3-yl]-1-methyl-imidazole-4-sulphonamide [Compound 217]
D2 [%] [1]: 96%
5-HT1A [%] [2]: 54%
α1 [%] [3]: 40%
α2C [%] (α2C adrenergic receptors): 96%
SERT [%] [4]: 90%
σ [%] (σ receptors): 86%

Compound: N-[[1-[2-[(2,2-Dimethyl-3H-benzofuran-7-yl)oxy]ethyl]azetidin-3-yl]methyl]-3-hydroxy-benzenesulphonamide [Compound 111]
D2 [%] [1]: 97%
5-HT1A [%] [2]: 99%
α1 [%] [3]: 68%
α2C [%] (α2C adrenergic receptors): 90%
SERT [%] [4]: 15%
σ [%] (σ receptors): 81%

Compound: O=S(=O)(NC1CCN(CCCc2noc3cc(F)ccc23)C1)c1csc2ccccc12 (stereo not drawn) [Compound 26, N-[1-[3-(6-Fluoro-1,2-benzoxazol-3-yl)propyl]pyrrolidin-3-yl]-benzothiophene-3-sulphonamide]
inhibition at 1 µM [1]: 98%
inhibition at 1 µM [2]: 79%
α1 [%] [3]: 87%
inhibition at 1 µM (α2C adrenergic receptors): 76%
inhibition at 1 µM [4]: 66%
σ [%] (σ receptors): 80%

Compound: CC(C)(C)c1ccc(S(=O)(=O)NCC2CN(CCOc3cccc4c3OCCO4)C2)cc1 [Compound 181, 4-tert-Butyl-N-[[1-[2-(2,3-dihydro-1,4-benzodioxin-5-yloxy)ethyl]azetidin-3-yl]methyl]benzenesulphonamide]
inhibition at 1 µM [1]: 73%
inhibition at 1 µM [2]: 98%
α1 [%] [3]: 50%
inhibition at 1 µM (α2C adrenergic receptors): 96%
inhibition at 1 µM [4]: 26%
σ [%] (σ receptors): 75%

Compound: COc1ccc2cc(S(=O)(=O)N[C@@H]3CCN(CCCc4noc5cc(F)ccc45)C3)ccc2c1 [Compound 230, N-[(3R)-1-[3-(6-Fluoro-1,2-benzoxazol-3-yl)propyl]pyrrolidin-3-yl]-6-methoxy-naphthalene-2-sulphonamide]
inhibition at 1 µM [1]: 99%
Ki ([1]; read-out: Inhibition constants Ki for D2 receptors, D2): 1.1 nM
inhibition at 1 µM [2]: 77%
α1 [%] [3]: 83%
inhibition at 1 µM (α2C adrenergic receptors): 92%
inhibition at 1 µM [4]: 75%
σ [%] (σ receptors): 90%

Compound: O=S(=O)(NCC1CCN(CCCc2noc3cc(F)ccc23)C1)c1cccc2ccccc12 (stereo not drawn) [Compound 239, N-[[1-[3-(6-Fluoro-1,2-benzoxazol-3-yl)propyl]pyrrolidin-3-yl]methyl]naphthalene-1-sulphonamide]
inhibition at 1 µM [1]: 96%
inhibition at 1 µM [2]: 56%
α1 [%] [3]: 91%
inhibition at 1 µM (α2C adrenergic receptors): 89%
inhibition at 1 µM [4]: 36%
σ [%] (σ receptors): 97%

D2 [%] [1]: 24%
5-HT1A [%] [2]: 98%
α1 [%] [3]: 45%
α2C [%] (α2C adrenergic receptors): 69%
SERT [%] [4]: 3%
σ [%] (σ receptors): 24%
Compound: O=S(=O)(NC1CN(CCOc2cccc3c2OCCO3)C1)c1cccc(F)c1 [Compound 89, N-[1-[2-(2,3-Dihydro-1,4-benzodioxan-8-yloxy)ethyl]azetidin-3-yl]-3-fluoro-benzenesulphonamide]

Compound: O=S(=O)(NCC1CCN(CCCc2noc3cc(F)ccc23)C1)c1ccc2cc(Cl)ccc2c1 (stereo not drawn) [Compound 237, 6-Chloro-N-[[1-[3-(6-fluoro-1,2-benzoxazol-3-yl)propyl]pyrrolidin-3-yl]methyl]naphthalene-2-sulphonamide]
inhibition at 1 µM [1]: 97%
inhibition at 1 µM [2]: 45%
α1 [%] [3]: 88%
inhibition at 1 µM (α2C adrenergic receptors): 82%
inhibition at 1 µM [4]: 61%
σ [%] (σ receptors): 88%

Compound: O=S(=O)(NCC1CN(CCOc2cccc3c2OCCO3)C1)c1ccc(Cl)c(Cl)c1 [Compound 183, 3,4-Dichloro-N-[[1-[2-(2,3-dihydro-1,4-benzodioxin-5-yloxy)ethyl]azetidin-3-yl]methyl]benzenesulphonamide]
inhibition at 1 µM [1]: 92%
inhibition at 1 µM [2]: 98%
α1 [%] [3]: 85%
inhibition at 1 µM (α2C adrenergic receptors): 99%
inhibition at 1 µM [4]: 48%
σ [%] (σ receptors): 94%

Compound: O=S(=O)(NC1CCN(CCCc2noc3cc(F)ccc23)C1)c1ccc2cc(Cl)ccc2c1 (stereo not drawn) [Compound 23, 6-Chloro-N-[1-[3-(6-fluoro-1,2-benzoxazol-3-yl)propyl]pyrrolidin-3-yl]naphthalene-2-sulphonamide]
inhibition at 1 µM [1]: 100%
inhibition at 1 µM [2]: 24%
α1 [%] [3]: 64%
inhibition at 1 µM (α2C adrenergic receptors): 89%
inhibition at 1 µM [4]: 53%
σ [%] (σ receptors): 61%

Compound: Cc1cccc(S(=O)(=O)NC2CCN(CCCc3c[nH]c4ccc(F)cc34)C2)c1 (stereo not drawn) [Compound 78, N-[1-[3-(5-Fluoro-1H-indol-3-yl)propyl]pyrrolidin-3-yl]-3-methyl-benzenesulphonamide]
inhibition at 1 µM [1]: 89%
inhibition at 1 µM [2]: 99%
α1 [%] [3]: 39%
inhibition at 1 µM (α2C adrenergic receptors): 85%
inhibition at 1 µM [4]: 101%
Ki [4]: 1 nM
σ [%] (σ receptors): 70%

Compound: Cc1cc(S(=O)(=O)N[C@H]2CCN(CCCc3noc4cc(F)ccc34)C2)c(C)s1 [Compound 223, N-[(3S)-1-[3-(6-Fluoro-1,2-benzoxazol-3-yl)propyl]pyrrolidin-3-yl]-2,5-dimethyl-thiophene-3-sulphonamide]
inhibition at 1 µM [1]: 89%
inhibition at 1 µM [2]: 49%
α1 [%] [3]: 86%
inhibition at 1 µM (α2C adrenergic receptors): 60%
inhibition at 1 µM [4]: 17%
σ [%] (σ receptors): 89%

Compound: O=S(=O)(NC1CCN(CCCc2c[nH]c3ccc(F)cc23)C1)c1ccc(Cl)cc1 (stereo not drawn) [Compound 77, 4-Chloro-N-[1-[3-(5-fluoro-1H-indol-3-yl)propyl]pyrrolidin-3-yl]-benzenesulphonamide]
inhibition at 1 µM [1]: 93%
inhibition at 1 µM [2]: 99%
α1 [%] [3]: 29%
inhibition at 1 µM (α2C adrenergic receptors): 78%
inhibition at 1 µM [4]: 104%
Ki [4]: 0.5 nM
σ [%] (σ receptors): 48%

Compound: O=S(=O)(NC1CCN(CCCc2noc3cc(F)ccc23)C1)c1cc2ccccc2s1 (stereo not drawn) [Compound 25, N-[1-[3-(6-Fluoro-1,2-benzoxazol-3-yl)propyl]pyrrolidin-3-yl]-benzothiophene-2-sulphonamide]
inhibition at 1 µM [1]: 98%
inhibition at 1 µM [2]: 74%
α1 [%] [3]: 85%
inhibition at 1 µM (α2C adrenergic receptors): 90%
inhibition at 1 µM [4]: 42%
σ [%] (σ receptors): 70%

Compound: O=S(=O)(NC1CCN(CCCc2noc3cc(F)ccc23)C1)c1ccc2ccccc2c1 (stereo not drawn) [Compound 21, N-[1-[3-(6-Fluoro-1,2-benzoxazol-3-yl)propyl]pyrrolidin-3-yl]naphthalene-2-sulphonamide]
inhibition at 1 µM [1]: 100%
inhibition at 1 µM [2]: 66%
α1 [%] [3]: 95%
inhibition at 1 µM (α2C adrenergic receptors): 78%
inhibition at 1 µM [4]: 59%
σ [%] (σ receptors): 60%

Compound: O=S(=O)(NC1CN(CCOc2cccc3[nH]ccc23)C1)c1cccc2ccccc12 [Compound 49, N-[1-[2-(1H-Indol-4-yloxy)ethyl]azetidin-3-yl]naphthalene-1-sulphonamide]
inhibition at 1 µM [1]: 99%
inhibition at 1 µM [2]: 100%
α1 [%] [3]: 89%
inhibition at 1 µM (α2C adrenergic receptors): 110%
inhibition at 1 µM [4]: 41%
σ [%] (σ receptors): 50%

D2 [%] [1]: 74%
5-HT1A [%] [2]: 100%
α1 [%] [3]: 24%
α2C [%] (α2C adrenergic receptors): 90%
SERT [%] [4]: 83%
σ [%] (σ receptors): 69%
Compound: O=S(=O)(NC1CCN(CCOc2cccc3ccccc23)C1)c1cccc(O)c1 (stereo not drawn) [Compound 115, 3-Hydroksy-N-[1-[2-(1-naphthyloxy)ethyl]pyrrolidin-3-yl]benzenesulphonamide]
